The test system of data set [1] is Haemonchus contortus und Trichostrongylus colubriformis. Description: Test on sheep infected with nematodes (worm egg count in faeces). The class given is in vivo, Schaf. The following applies: single dose 0,2 mg/kg by stomach tube or intraruminal injection, compared with untreated infected controls. The procedure: Der Wirkstoff wird als Suspension formuliert mit einer Magensonde oder durch Injektion in den Pansen eines Schafes gegeben, das mit Haemonchus contortus und Trychostrongylus colubriformis künstlich infiziert worden ist. Pro Dosis werden 1 bis 3 Tiere verwendet. Jedes Schaf wird nur einmal mit einer einzigen Dosis behandelt, und zwar wahlweise mit 0,5 mg oder 0,2 mg/kg Körpergewicht. Die Evaluierung erfolgt durch Vergleich der Anzahl der vor und nach Behandlung im Kot der Schafe ausgeschiedenen Wurmeier. Gleichzeitig und gleichartig infizierte aber unbehandelte Schafe dienen als Kontrolle.

In data set [2] the test system is Li-Larven von Lucilia sericata. Description: Activity against L1 larvae of Lucilia sericata (mortality in larval culture medium). The conditions noted are these: 100 ppm active substance in larval medium; about 30 L1 larvae; mortality after 4 days. The procedure: 1 ml einer wässrigen Suspension der zu prüfenden Aktivsubstanz werden so mit 3 ml eines speziellen Larvenzuchtmediums bei ca. 50° C vermischt, dass ein Homogenisat von wahlweise 250 ppm oder 100 ppm Wirkstoffgehalt entsteht. In jede Reagenzglas-Probe werden ca. 30 Lucilia-Larven (L1) eingesetzt. Nach 4 Taben wird die Mortalitätsrate bestimmt. Verbindungen der Formel I aus den Tabellen, wie z.B. die Verbindungen H4 und H5 erzielten mit 100 ppm eine Wirkung von 100%.

Data set [3] deals with Dermanyssus gallinae. Description: Miticidal activity against Dermanyssus gallinae. The conditions noted are these: 100 ppm test solution; about 200 mites; observed for three days. How it is done: 2 bis 3 ml einer Testlösung (100, 10, 1 und 0,1 ppm Aktivsubstanz) werden in einen nach oben offenen Glasbehälter gegeben und ca. 200 Milben in unterschiedlichen Entwicklungsstadien in diesen Behälter eingesetzt. Der Glasbehälter wird mit einem Wattebausch verschlossen und 10 Minuten gleichmässig, bis zur vollständigen Benetzung der Milben geschüttelt. Danach wird der Behälter umgekehrt hingestellt, bis die überschüssige Testlösung von der Watte aufgesogen ist. Der Behälter wird erneut gekehrt und die behandelten Milben zur Evaluierung der Wirksamkeit der Testsubstanzen drei Tage unter Laborbedingungen beobachtet, wobei die Mortalität als Massstab für Wirksamkeit herangezogen wird. Verbindungen aus den Tabellen, wie z.B. die Verbindungen H4 und H5 zeigen bei 100 ppm eine Wirkung von 1000/0.

Take 13ß-Vinyl-milbemycin A4 [H5]: the “Nematodenbefall (Reduktion der Wurmeier im Kot)” value in data set [1] is reported as “keinen Nematodenbefall”. The “Wirkung (Mortalitätsrate)” value in data set [2] worked out at 100%. Besides, in data set [3], the “Wirkung (Mortalität)” value was 1000/0.
With 13-Vinyl-milbemycin A4 [H4], in data set [1], the “Nematodenbefall (Reduktion der Wurmeier im Kot)” value is “keinen Nematodenbefall”. Also, the “Wirkung (Mortalitätsrate)” value in data set [2] is given as 100%. The “Wirkung (Mortalität)” value in data set [3] is 1000/0.

Values taken from EP0282456A2, “Mylbemycin derivatives to combat parasites on animals” (CIBA-GEIGY AG, priority 1987, dated 1988).
